Experiments:
kinome = assay: Kinome profiling (KINOMEscan); assay type: binding
Procedure: WNTinib's inhibitory profile was performed using Eurofins' (DiscoverX) KINOMVEscan platform. Inhibition trees were visualized using KinMap (Eid et al., “KinMap: A Web-Based Tool for Interactive Navigation through Human Kinome Data,” BMC 10 Bioinformatics 18(1):16 (2017), which is hereby incorporated by reference in its entirety). For regorafenib and sorafenib, publicly available data was used to visualize inhibition trees (Uitdehaag et al., “Comparison of the Cancer Gene Targeting and Biochemical Selectivities of All Targeted Kinase Inhibitors Approved for Clinical Use,” Plos ONE 9(3):e92146 (2014) and Davis et al., “Comprehensive Analysis of Kinase Inhibitor Selectivity,” Nat. Biotechnol. 29(11):1046-1051 (2011), which are hereby incorporated by reference in their entirety).

[1] = tested on: immune cell tumor infiltration; assay: Immune cell profiling of tumors by spectral cytometry; assay type: in vivo, mouse; conditions: compared to vehicle or standard of care (sorafenib); six days after start of dosing
Procedure: FIGS. 14A-14G show results pertaining the use of WNTinib in combination with immunotherapy. […] C57/BL6 mice were randomized into treatment groups using IVIS imaging to quantify tumor size based on luminescence signal intensity. After randomization, kinase inhibitors were dissolved in 25% cremaphor:ethanol in water and administered orally (30 mg/kg sorafenib, 20 mg/kg WNTinib) beginning 7 days after injection following 5 days on/2 days off dosing schedule. Immunotherapy (anti-PD-1) was administered via intraperitoneal injection on days 11, 13, and 15 after injection at 200 μg. Log-rank p-values for survival in drug treatment groups to vehicle group and median survival are shown. Mice were assigned to different treatment groups as follows: vehicle (25), sorafenib (10), aPD-1 (15), WNTinib (25), and WNTinib+aPD-1 (25). […] Significant differences between groups indicated by asterisks. ** P<0.005, *** P<0.0005, as calculated with an ANOVA with Tukey test for multiple comparisons. Animals were dosed via daily oral gavage using 20 mg/kg of WNTinib and 30 mg/kg of sorafenib. […] 3 animals per indicated groups were assessed using spectral cytometry panels for both lymphocytes and myeloid cells. […]
Next, the effect of WNTinib on immune cell tumor infiltration was evaluated.

## CNC(=O)c1cc(Oc2ccc(NC(=O)Nc3ccc(C(F)(F)C(F)(F)F)cc3)c(F)c2)ccn1 [WNTinib, 4-(3-fluoro-4-(3-(4-(perfluoroethyl)phenyl)ureido)phenoxy)-N-methylpicolinamide]
kinome; compared with sorafenib and regorafenib
  kinome selectivity (selectivity scores): generally less promiscuous than the parental compounds
kinome; in vitro kinase assays
  kinase targets maintained: maintains several of the proposed key targets of sorafenib and regorafenib, including c-KIT, PDGFRα/β, VEGFR1/2, RET and FLT3
[1]
  immune cell tumor infiltration: significantly increase the number of CD45^+ cells, the ratio of CD4/CD8, and the number of neutrophils and reduce the number of B cells and immunosuppressed tissue associated macrophages (TAM) in tumors

Source: patent US20230404985A1, “METHODS OF TREATING TUMORS AND CANCERS HAVING DYSREGULATED WNT SIGNALING PATHWAYS” (ICAHN SCHOOL OF MEDICINE AT MOUNT SINAI, priority 2020, published 2023)
